The record followed here is ChEMBL document CHEMBL3045585, “Combinatorial approach: identification of potential antifungals from triazole minilibraries” (2011).

Converted amounts (≈) assume the structure as drawn.

What all share (assay type): functional
The test system of one assay is Fusarium oxysporum. Description: Antifungal activity against Fusarium oxysporum NCIM 1008 by serial dilution method.
A further assay has as its system Aspergillus flavus. Briefly: Antifungal activity against Aspergillus flavus NCIM 536 by serial dilution method.
The next assay deals with Penicillium chrysogenum. Description: Antifungal activity against Penicillium chrysogenum NCIM 725 by serial dilution method.
Another assay concerns Aspergillus niger. Briefly: Antifungal activity against Aspergillus niger NCIM 945 by serial dilution method.

For `COc1ccc(/C=N/n2c(SCc3ccccc3)nnc2-c2ccccc2N)cc1`, the minimum inhibitory concentration (MIC) (in general, the lowest concentration that inhibits growth of the organism) in the assay on Fusarium oxysporum amounted to 250 µg/mL (≈ 602 µM); against Aspergillus flavus, 32 µg/mL (≈ 77 µM); against Penicillium chrysogenum, 125 µg/mL (≈ 301 µM); with Aspergillus niger, 62 µg/mL (≈ 149 µM).

Take `Nc1ccccc1-c1nnc(SCc2ccccc2)n1/N=C/c1ccc(Cl)cc1`: the MIC is 62 µg/mL (≈ 148 µM) in the assay with Fusarium oxysporum, 125 µg/mL (≈ 298 µM) in the assay with Aspergillus flavus, 31 µg/mL (≈ 73.8 µM) with Penicillium chrysogenum and 125 µg/mL (≈ 298 µM) in the assay with Aspergillus niger.

Consider `COc1ccc(/C=N/n2c(SCc3ccccc3)nnc2-c2ccncc2)cc1`, for which the MIC against Fusarium oxysporum worked out at 250 µg/mL (≈ 623 µM); against Aspergillus flavus it was 250 µg/mL (≈ 623 µM); with Penicillium chrysogenum, 125 µg/mL (≈ 311 µM); against Aspergillus niger, 31 µg/mL (≈ 77.2 µM).

As for `CN(C)c1ccc(/C=N/n2c(SCc3ccccc3)nnc2-c2ccccc2N)cc1`, the minimal inhibitory concentration (MIC) against Fusarium oxysporum was 32 µg/mL (≈ 74.7 µM); in the assay with Aspergillus flavus it was 125 µg/mL (≈ 292 µM); in the assay on Penicillium chrysogenum, 250 µg/mL (≈ 583 µM); against Aspergillus niger it was 62 µg/mL (≈ 145 µM).
